Experimental findings from patent US5858975A, “Oxyntomodulin peptide having cardiotonic activity and insulin release-bromating activity” (Kyowa Hakko Kogyo Co., Ltd., priority 1994, dated 1999) are described below.

One test deals with eel atrium. The test is described as follows: Effect of OXM in eel atrium (isolated atrium, tension transducer). Particulars: isolated eel atrium in Ringer's solution, varying OXM concentration. As to the method: Test Example 1 Effect of OXM in Eel Atrium
An atrium was taken out of an eel, and one end of said atrium was fixed to the bottom of syringe filled with 1.5 ml of Ringer's solution in which was introduced a mixed gas of oxygen and carbon dioxide (95:5), while the other end thereof was connected to a tension transducer (NEC) via a silk thread. 15 μl of an aqueous solution of OXM as diluted with distilled water to have a varying concentration was added to said Ringer's solution, whereupon the tension to be generated by the atrial contraction was measured through the tension transducer. OXM used herein was the product as produced in Example 2. During this measurement, the atrial rate was also counted.

The test system of test [1] is plasma insulin concentration. The test is described as follows: Effect of OXM on plasma insulin concentration of anesthetized rat. It is filed as in vivo. The note with it: anesthetized fasted male SD rats, cumulative administration via jugular vein, blood 5 minutes after each dose; FIG. 3. The protocol: Test Example 2 Effect of OXM on Plasma Insulin Concentration of Anesthetized Rat
Male SD rats (370 to 450 g) were bred with no feed for from 15 to 20 hours, and then Na pentobarbital (50 mg/kg) was intra-abdominally administered thereto. A blood-collecting cannula was inserted into the carotid artery of each rat. A dosed cannula was inserted into the jugular vein of each rat. About 600 μl of blood was collected from each rat before the administration of a test chemical, and 5 minutes after each administration of a varying dose of the said test chemical. OXM obtained in Example 2 was added to physiological saline solution to adjust concentration of 1 mg/ml. The said OXM solution was diluted with a physiological saline solution, the thus-diluted solution was accumulatively administered to each rat. The dose of the solution was 1 ml/kg. The collected blood was centrifuged, and its insulin concentration was measured according to the Insulin-EIA Test (Wako Pure Chemicals).

For “H-HSQGTFTNDYSKYLETRRAQDFVQWLMNSKRSGGPT-OH [OXM]”, the “atrial systole (atrial tension)” value in the test with eel atrium (FIG. 1) is “dose-dependently increases”. In addition, the atrial rate entry with eel atrium (FIG. 2) is listed as “dose-dependently increases”. In test [1], the “dose at which plasma insulin concentration is increased” value is ≥ 0.01 mg/kg.
